Source: paper PMC9963438, “Emerging Effects of Resveratrol Derivatives in Cells Involved in Oral Wound Healing: A Preliminary Study” (International Journal of Molecular Sciences, 2023)

Legend:
HUVECs [1] = assay: MTT viability/proliferation on HUVECs; format: cell-based, human
Protocol: To measure HUVECs, HGFs, and HOBs metabolic activity as an indicator of cell viability and proliferation, an MTT assay (Sigma Aldrich, Milan, Italy) was performed. In brief, 8000 cells/well (HUVECs, HGFs and HOBs) were seeded in 96-well plates and after 24 h cells were treated with increasing concentrations of 1d and 1h for 48 h and 72 h. Then, the medium was replaced by a fresh one supplemented with […] MTT and probed for 4 h at 37 °C. The medium containing MTT was discarded and replaced by an equal volume of DMSO to dissolve formazan crystals. The absorbance of the solution was read at a 540 nm wavelength by a microplate reader (Multiskan GO, Thermo Scientific, MA, USA). Values obtained without cells were considered as background. Viability and proliferation were normalized to control cells treated with DMSO 0.1%.

OCN mRNA in HOBs = assay: RT-qPCR of OCN in HOBs; format: cell-based, human
Protocol: (§1) Total RNA was isolated using Trifast reagent (EuroClone) according to the manufacturer instructions from 3 × 10^5 cells/well treated with increasing concentrations of 1d and 1h for 48 h and 72 h. Complementary DNA (cDNA) was obtained using GoTaq® 2 Step RT-qPCR Kit (Promega, Madison, WI, USA) in accordance with the manufacturer’s instructions. RT-qPCR was carried out using SYBR Green (Promega) on the Quant Studio 7 Pro Real-Time PCR System (ThermoFisher, Waltham, MA, USA). The results were normalized to glyceraldehyde 3-phoshate dehydrogenase (GAPDH) for HUVECs and HGFs and to β-actin (βACT) for HOBs using the 2^−ΔΔCt method.

HGFs [2] = assay: Toluidine blue staining, morphology and confluence of HGFs; format: cell-based, human; settings: for HGFs confluence: compared to controls
Protocol: (§2) The influence of 1d and 1h was evaluated on cells density and morphology by toluidine-blue staining. A total of 2 × 10^4 cells/well were cultured in 24-well plates and were incubated at 37 °C and 5% CO2 with tested compounds at 5 µM. After 48 and 72 h, adherent cells were fixed with 70% cold ethanol and stained with 1% toluidine blue and 1% borax (Sigma Aldrich, St. Louis, MO, USA). Cells were then observed by an inverted microscope connected with a camera at 40×, 100×, and 200× magnifications (Leica, Wild Heer-brugg, Wetzlar, Germany).

Water solubility = format: physicochemical; settings: deionized water, 25 °C
Protocol: An excess of compounds 1d and 1h was placed in 1 mL of deionized water and the suspension was shaken at 25 °C for 15 min to ensure the solubility equilibrium. Next, the supernatant was filtered (Millipore 0.45 µm, Burlington, Massachusetts, USA) and analyzed by HPLC [49].

[3] = Kinetic of chemical hydrolysis, pH 7.0; format: physicochemical; settings: pH 7.0, 37 °C; for Chemical hydrolysis Kobs: mean of three experiments (SD); for half-life at 18.2 µM: phosphate buffer, read-out: Chemical hydrolysis t ½ (converted)
Protocol: A phosphate buffer (PBS, pH 7.0) was used to estimate the chemical stability. The reaction was started by adding 1 mL of a 2 × 10^−4 M stock solution in ACN to a thermostatic (37 ± 0.5 °C) aqueous buffer solution (8 mL) and 2 mL of acetonitrile, containing 0.1% (v/v) Cremophor ELP. At established time points, samples (200 µL) were withdrawn and analyzed by HPLC. Pseudo-first-order rate constants (kobs) for the hydrolysis of the compound were calculated from the slopes of the linear plots of log (% residual compound) against time. The results are expressed as mean values of three different experiments.

HUVECs [4] = assay: LDH release assay on HUVECs; format: cell-based, human; settings: 24 h
Protocol: (§3) Lactate Dehydrogenase (LDH) activity in HUVECs, HGFs, and HOBs was measured with a cytotoxicity detection kit LDH (Roche, Basilea, Swiss). Firstly, 5000 cells/well (HUVECs, HGFs and HOBs) were seeded in 96-well plates and treated with 1d and 1h (5, 10, 20 µM). After 24 h, the assay was performed according to manufacturer instructions. LDH release was calculated as a percentage with respect to the control (CTRL).

HOBs [5] = assay: LDH release assay on HOBs; format: cell-based, human; settings: 24 h
Protocol: as §3

HUVECs [6] = assay: Toluidine blue staining, morphology and confluence of HUVECs; format: cell-based, human; settings: 5 µM; for HUVECs confluence: 48 h, compared to CTRL and RSV; for HUVECs growth / confluence: 72 h, compared to controls
Protocol: as §2

HOBs [7] = assay: Alizarin red staining and calcium deposition (CPC) in HOBs; format: cell-based, human; settings: 5 µM, 14 days
Protocol: To evaluate mineralization qualitatively, Alizarin red staining was performed. 5 × 10^4/well HOBs were seeded and treated with 1d and 1h. After 14 days of culture, HOBs were rinsed three times with PBS and fixed with a glutaraldehyde solution (2.5%) for 2 h. An Alizarin staining solution (Sigma-Aldrich) was then added for 1h at room temperature and the excess dye was removed using deionized water. The presence of calcium deposition was qualitatively evaluated by observing the intensity of the red color. Images were taken by a stereomicroscope connected with a camera at a magnification of 12× (Leica, Wetzlar, Germany). Furthermore, to quantify calcium deposition, Cetylpyridinium Chloride (CPC) was used. Upon a washing with deionized water, cells were treated with 1 mL of 10% CPC solution (Sigma-Aldrich) for 1 h to chelate calcium ions. After incubation, the absorbance was read at 540 nm by a microplate reader (Synergy H1 Hybrid BioTek Instruments) and normalized with the cell number.

eNOS mRNA in HUVECs = assay: RT-qPCR of eNOS in HUVECs; format: cell-based, human
Protocol: as §1

HGFs [8] = assay: LDH release assay on HGFs; format: cell-based, human; settings: 24 h
Protocol: as §3

COL1 mRNA in HGFs = assay: RT-qPCR of COL1 in HGFs; format: cell-based, human
Protocol: as §1

[9] = 5 µM, 72 h, vs CTRL and RSV 10 µM
[10] = 10 µM, 48 h, vs CTRL and RSV 10 µM
[11] = 10 µM, 72 h, vs CTRL and RSV 10 µM
[12] = 20 µM, 72 h, vs CTRL and RSV 10 µM
[13] = 72 h, 1d and 1h 5 µM, RSV 10 µM
[14] = 10 and 20 µM, differences not significant
[15] = all concentrations (5, 10, 20 µM), 48 and 72 h

| SMILES | HUVECs viability (MTT) (HUVECs [1]; [9]) | HUVECs viability (MTT) (HUVECs [1]; [10]) | HUVECs viability (MTT) (HUVECs [1]; [11]) | HUVECs viability (MTT) (HUVECs [1]; [12]) | OCN mRNA expression (OCN mRNA in HOBs; 5 µM, 48 h) | OCN mRNA expression (OCN mRNA in HOBs; 10 and 20 µM, 48 h) | HGFs morphology (HGFs [2]; 5 µM, 48 h) | HGFs confluence (HGFs [2]; 5 µM, 72 h) | HGFs morphology (HGFs [2]; [13]) | Water solubility (Water solubility) | Chemical hydrolysis Kobs [3] | half-life at 18.2 µM [3] | LDH release (HUVECs [4]; 5 µM) | LDH release (HUVECs [4]; [14]) | LDH release (HOBs [5]; 5 µM) | LDH release (HOBs [5]; [14]) | HUVECs confluence (HUVECs [6]) | HUVECs growth / confluence (HUVECs [6]) | matrix mineralization by ARS (qualitative) (HOBs [7]) | eNOS mRNA expression (eNOS mRNA in HUVECs; 5 µM, 48 h, vs CTRL and RSV) | also measured |
| --- | --- | --- | --- | --- | --- | --- | --- | --- | --- | --- | --- | --- | --- | --- | --- | --- | --- | --- | --- | --- | --- |
| CCS(=O)(=O)Nc1ccc(/C=C/c2ccccc2)cc1 [1h, N-{4-[(E)-2-Phenylvinyl]phenyl}ethanesulfonamide] | slightly favored cell growth with respect to RSV | viability was not induced | viability significantly decreased | viability significantly decreased | significantly stimulated OCN levels with respect to the CTRL | slightly promoted | short and broad and assumed a cuboid to polygonal aspect | nearly confluent | mainly appeared as long spindles | insoluble in water | 0.030 (±0.001) h^−1 | 23.4 h | lowest LDH values | slightly increased the LDH | lowest LDH values | slightly increased the LDH | reached confluence approximately earlier | growth was more consistent | stimulated the formation of mineralized nodules | increased eNOS expression at 5 µM | HUVECs viability (MTT) (HUVECs [1]; 20 µM, 48 h, vs CTRL and RSV 10 µM): viability was not induced; OCN mRNA expression (OCN mRNA in HOBs; 72 h, in respect to CTRL, levels comparable to RSV): slightly increased OCN expression; eNOS mRNA expression (eNOS mRNA in HUVECs; 5, 10, 20 µM, 72 h): slightly promoted; LDH release (HGFs [8]; 5 µM): lowest LDH values; LDH release (HGFs [8]; [14]): slightly increased the LDH; COL1 mRNA level (COL1 mRNA in HGFs; [15]): increase in COL1 mRNA level |
| Cc1ccc(S(=O)(=O)Nc2ccc(/C=C/c3ccccc3)cc2)cc1 [1d, 4-Methyl-N-{4-[(E)-2-phenylvinyl]phenyl}benzenesulfonamide] | significantly promoted cell viability with respect to RSV | slightly increased for 10 µM only with respect to RSV | viability was not enhanced | viability was not enhanced | increased after 48 h exposure to all 1d concentrations with statistical significance just for 5 µM | increased | short and broad and assumed a cuboid to polygonal aspect | nearly confluent | mainly appeared as long spindles | insoluble in water | 0.050 (±0.004) h^−1 | 13.9 h | lowest LDH values | slightly increased the LDH | lowest LDH values | slightly increased the LDH | reached confluence approximately earlier | growth was more consistent | higher mineralization potential | increased after 48 h exposure to all 1d concentrations with statistical significance just for 5 µM | HUVECs viability (MTT) (HUVECs [1]; 5 µM, 48 h, vs CTRL (0.1% DMSO) and RSV 10 µM): slight increase in metabolic activity at 5 µM compared to the CTRL and a significant increase compared to RSV; OCN mRNA expression (OCN mRNA in HOBs; 5 µM, 72 h, compared to CTRL): highest significant peak; OCN mRNA expression (OCN mRNA in HOBs; 10, 20 µM, 72 h): slightly promoted the enhancement of OCN expression; calcium deposition (quantitative measurement with CPC) (HOBs [7]; vs control, RSV and 1h): significantly stimulated the calcium deposition; eNOS mRNA expression (eNOS mRNA in HUVECs; 5, 10, 20 µM, 72 h): slightly promoted the enhancement of eNOS expression; eNOS mRNA expression (eNOS mRNA in HUVECs; 10 and 20 µM, 48 h, not statistically significant): increased; LDH release (HGFs [8]; 5 µM): lowest LDH values; LDH release (HGFs [8]; [14]): slightly increased the LDH; COL1 mRNA level (COL1 mRNA in HGFs; 5 µM, 48 h, compared to CTRL and RSV): significantly highest result; COL1 mRNA level (COL1 mRNA in HGFs; [15]): increase in COL1 mRNA level |
